Measurements reported in patent US9664696B1, “Compounds for determining the presence of hydrogen sulfide and methods of use” (University of Oregon, priority 2013, dated 2017).

Experiments:
[1] = pH 7.4
[2] = UV-vis titration of 100 with NaSH, absorbance of products; assay type: physicochemical; parameters: ε413: unit not given here; settings: PIPES buffer pH 7.4
[3] = pH titration of compound 42 monitored by UV-vis; assay type: physicochemical; settings: aqueous 100 mM KCl / 10 mM KOH solution titrated with HCl; absorbance at 534 nm as a function of pH; read-out: apparent pKa of the thiol
Protocol: A 15 mL solution of compound 42 (111 μM) in 100 mM KCl and 10 mM KOH Millipore water was prepared. The pH of the solution was adjusted with 10 M, 5 M, 1 M, 50 mM, or 1 mM solutions of HCl and the pH recorded. At each pH value, an aliquot of the solution was transferred to a cuvette and the UV-vis spectrum was measured. After measurement, the aliquot was returned to the stock solution and the pH was adjusted to the next point in the titration.

[4] = Colorimetric selectivity studies, H2S versus amino acids and RSONS
[5] = Air sensitivity of the chemiluminescent compound precursors; assay type: physicochemical
[6] = 1H NMR titration, 1:1 binding model, TBA-Ser; settings: 10.0 mM probe, 0-200 mM amino acid, DMSO-d6, 25.0° C., average of three titrations
Protocol: (§1) A septum-sealed NMR tube was charged with either chemiluminescent compound precursor 200 or 202 (10 mM in 300 μL of DMSO-d6) and aliquots of a DMSO-d6 solution containing 200 mM amino acid mixed with 10 mM of the compound were added using a syringe. The chemical shifts of the aromatic proton resonances were tracked and the data were fitted to a 1:1 binding model.
In addition to computational evidence for the hydrogen-bonding hypothesis, NMR titrations of chemiluminescent compound precursors 200 and 202 were also performed with different amino acids to further validate the model with solution data. Serine was used as a model amino acid because cysteine quickly reduces chemiluminescent compound precursor 200 under typical experimental conditions. […] Similarly, to model the protonation state of the amino acids in water, and also to ensure complete solubility through the course of the titration, the tetrabutylammonium salts of each amino acid were prepared. By titrating tetrabutylammonium serine (TBA-Ser) into independent solutions of chemiluminescent compound precursors 200 and 202, striking changes in the aromatic region of the NMR spectra were observed, consistent with amino acid binding to the hydrazide moiety (FIGS. 34A-34C). […]

[7] = 1H NMR titration, 1:1 binding model, TBA-Val; settings: 10.0 mM probe, 0-200 mM amino acid, DMSO-d6, 25.0° C., average of three titrations
Protocol: as §1
^1H NMR titrations with tetrabutylammonium valine (TBA-Val) were also performed as a second model system in which the side chain of the amino acid cannot hydrogen bond to the azide. […] The binding affinities measured for TBA-Val are larger than for TBA-Ser (Table 9), which is consistent with the reduced internal competition for intramolecular hydrogen bonding sites in valine. Based on these titration data, and the lower hydrogen bonding ability of thiols by comparison to alcohols, binding affinity of cysteine for chemiluminescent compound precursor 200 and 202 was expected to be between the measured values for serine and valine. Under the general experimental conditions used to measure the selectivity date, a 10^3-10^4 M^−1 binding affinity between Cys/chemiluminescent compound precursor 200 would result in significant generation of the Cys/chemiluminescent compound precursor 200 adduct, which is consistent with the observed erosion in selectivity. […]

[8] = Chemiluminescent H2S detection limit (HRP/H2O2/p-iodophenol); settings: for chemiluminescent response after H2S-mediated reduction: followed by treatment with HRP and H2O2; for chemiluminescence in the absence of H2S: treatment with HRP and H2O2, by comparison to luminol or isoluminol
Protocol: (§2) In a septum-sealed cuvette, a solution of the compound (50 μM) and the desired reactive species was incubated in PIPES buffer (50 mM PIPES, 100 mM KCl, pH 7.4) for 60 minutes at 37.0° C. After incubation, 40 μL of 6 M NaOH was added to increase the pH to an optimal level for luminol chemiluminescence. After pH adjustment, 10 μL of 10 U/mL Horseradish Peroxidase (HRP) with 0.2 μM p-iodophenol was added. A background reading was acquired for 60 seconds, after which 50 μL of H2O2 (35%) was added. The sample luminosity at 425 nm was integrated for 300 s after H2O2 addition. The data reported are the average of at least three independent experiments.
In this particular embodiment, the use of a compound for a chemiluminescent testing method is disclosed.
Following the H2S-derived chemiluminescent response of both chemiluminescent compound precursor 200 and chemiluminescent compound precursor 202, the detection limit of each chemiluminescent compound precursor for H2S was determined. After incubating each chemiluminescent compound precursor for 1 hour for different H2S concentrations, the chemiluminescent response was measured after treatment with H2O2/HRP using p-iodophenol as an enhancer. […] Based on the concentration-dependent H2S response and the instrumental background measurements, the H2S detection limit (3σ) of chemiluminescent compound precursor 200 and chemiluminescent compound precursor 202 was determined to be 0.7±0.3 μM and 4.6±2.0 μM, respectively. Although the total brightness of chemiluminescent compound precursor 202 was lower than that of compound 200, both these detection limits were below the reported range of H2S concentrations (20 μM-100 μM) found in mammalian blood.

[9] = Chemiluminescence selectivity for H2S over reactive sulfur, oxygen, and nitrogen species (RSONS); settings: for turn on for H2S: chemiluminescence, H2S versus blank
Protocol: as §2
The response of chemiluminescent compound precursor 200 and chemiluminescent compound precursor 202 to biologically-relevant reactive sulfur, oxygen, and nitrogen species (RSONS) was also determined. The selectivity of chemiluminescent compound precursor 200 for H2S was determined by adding 33 equivalents of cysteine (Cys), homocysteine (Hcy), N-acetylcysteine (NAC), reduced glutathione (GSH), thiosulfate (S2O3^2−), sulfate (SO4^2−), nitric oxide (NO), nitroxyl (HNO), and nitrite (NO2^−) (FIGS. 10 and 11). […]

[10] = biological target: cystathionine γ-lyase (CSE) (Homo sapiens, UniProt P32929); experiment: Detection of enzymatically produced H2S from isolated CSE; assay type: biochemical
cystathionine γ-lyase (CSE), sequence (P32929 whole entry, species assumed): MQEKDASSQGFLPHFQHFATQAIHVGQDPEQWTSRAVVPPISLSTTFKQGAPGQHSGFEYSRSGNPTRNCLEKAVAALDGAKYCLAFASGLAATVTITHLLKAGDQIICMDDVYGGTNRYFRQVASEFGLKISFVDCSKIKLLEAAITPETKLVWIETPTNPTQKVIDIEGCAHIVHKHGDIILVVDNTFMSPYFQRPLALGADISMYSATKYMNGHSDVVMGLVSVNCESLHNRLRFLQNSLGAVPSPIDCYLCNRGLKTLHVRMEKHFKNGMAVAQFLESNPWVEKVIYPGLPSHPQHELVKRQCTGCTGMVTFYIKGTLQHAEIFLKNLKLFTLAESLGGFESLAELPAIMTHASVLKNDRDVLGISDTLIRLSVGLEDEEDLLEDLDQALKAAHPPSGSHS
Protocol: (§3) In a septum sealed cuvette, the desired reactive species were incubated in PIPES buffer (50 mM PIPES, 100 mM KCl, pH 7.4) at 37.0° C. for 48 hours. After initial incubation, 15 μL of 10 mM chemiluminescent compound precursor 202 in DMSO was added, and allowed to react for 60 min. After incubation, 40 μL of 6 M NaOH was added to increase the pH to an optimal level for luminol chemiluminescence. After pH adjustment, 10 μL of 10 U/mL Horse-radish Peroxidase (HRP) with 0.2 μM p-iodophenol was added. A background reading was acquired for 60 s, after which 50 μL of H2O2 (35%) was added. The sample luminosity at 425 nm was integrated for 40 s after H2O2 addition. The data reported are the average of at least three independent experiments.
CSE is a PLP-dependent enzyme that converts Hcy or Cys to H2S and can be inhibited by β-cyano-L-alanine (BCA).

C6 cells = experiment: Detection of endogenously produced H2S in C6 cell lysates; assay type: cell-based
Protocol: as §3
C6 cells were obtained from ATCC and cultured in Dulbecco's Modified Eagle Medium (DMEM, Cellgro, MediaTek, Inc.) supplemented with 10% fetal bovine serum (FBS, HyClone), and 1% penicillin/streptomycin. Cells were passed and plated into T-75 flasks containing 10 mL of DMEM, and incubated at 37° C. with 5% CO2. For luminescence studies, the cells were washed with 1× phosphate buffered saline (PBS), trypsinized with 5 mL of Trypsin, and then centrifuged to form a cell pellet. The cell pellet was resuspended in 5 mL of 1×PBS and the cells were counted using a Bio RAD TC20 automated cell counter. Cells were centrifuged at 1,000 RPM for 5 minutes at room temperature, placed on ice and lysed using 100 μL of RIPA buffer (pH 7.5 10 mM Tris-HCl, 150 mM NaCl, 1.0% Nonidet P-40, 0.1% SDS, 0.1% sodium deoxycholate) containing protease inhibitor (PhosSTOP, Roche) for every 2×10^6 cells in the pellet. Luminescence measurements on cell lysates were made using 100 μL of lysate solution (2×10^6 cells per experiment) under ambient atmosphere by following the general procedure for enzymatically produced H2S outlined above.
The ability of chemiluminescent compound precursor 202 to detect and quantify endogenously-produced H2S in C6 cells was determined.

[11] = 30 equivalents of H2S then added, 45 min
[12] = Reactant 2-mercaptoethanol (2-ME)
[13] = Reactant H2S, 33 equivalents, 50 μM compound, 60 min, 37.0° C., pH 7.4

Row | Compound | air sensitivity [5] | Binding Affinities [6] [M⁻¹] | Binding Affinities [7] [M⁻¹] | chemiluminescent response after H2S-mediated reduction [8] | chemiluminescence in the absence of H2S [8] | Normalized Luminescence (CL/CL0) [9, 12] | Normalized Luminescence (CL/CL0) ([9]; Reactant Cys) | Normalized Luminescence (CL/CL0) ([9]; Reactant GSH) | Normalized Luminescence (CL/CL0) [9, 13] | Normalized Luminescence (CL/CL0) ([9]; Reactant HNO) | Normalized Luminescence (CL/CL0) ([9]; Reactant Hcy) | Normalized Luminescence (CL/CL0) ([9]; Reactant NAC) | Normalized Luminescence (CL/CL0) ([9]; Reactant NO2) | Normalized Luminescence (CL/CL0) ([9]; Reactant ONOO^−) | Normalized Luminescence (CL/CL0) ([9]; Reactant S2O^2−) | Normalized Luminescence (CL/CL0) ([9]; Reactant SNAP (NO)) | Normalized Luminescence (CL/CL0) ([9]; Reactant SO4^2−) | turn on for H2S [9] [fold] | further results
1 | Cc1cc(=O)oc2cc(N=[N+]=[N-])ccc12 [C-7Az, 7-azido-4-methylcoumarin] |  |  |  |  |  |  |  |  |  |  |  |  |  |  |  |  |  |  | photostability under continuous exposure [1]: probe photoactivation
2 | O=[N+]([O-])c1ccc(Sc2ccc([N+](=O)[O-])c3nonc23)c2nonc12 [compound 40, bis(7-Nitrobenzo[c][1,2,5]oxadiazol-4-yl)sulfane] |  |  |  |  |  |  |  |  |  |  |  |  |  |  |  |  |  |  | ε413 ([2]; absorbance at 413 nm): 11,700±100
3 | O=[N+]([O-])c1ccc(S)c2nonc12 [compound 42, 7-Nitrobenzo[c][1,2,5]oxadiazole-4-thiol] |  |  |  |  |  |  |  |  |  |  |  |  |  |  |  |  |  |  | pKa [3]: 2.6; ε534 ([2]; λmax 534 nm): 19,000±600 M^−1 cm^−1
4 | O=[N+]([O-])c1ccc(Sc2ccc([N+](=O)[O-])c3nonc23)cc1 [compound 116, 4-Nitro-7-(4-nitrophenylthio)benzo[c][1,2,5]oxadiazole] |  |  |  |  |  |  |  |  |  |  |  |  |  |  |  |  |  |  | absorbance peak at 534 nm after initial incubation ([4]; 3 μM compound, 10 equivalents of H2S, glycine, serine, tyrosine, lysine, glutathione, N-acetyl-L-cysteine): only the H2S samples showed the characteristic absorbance peak at 534 nm; H2S response after incubation of GSH and N-acetylcysteine [4, 11]: somewhat eroded; colorimetric response to H2S after incubation with biological nucleophiles [4, 11]: robust colorimetric response to H2S

Now from value to compound, other results behind:

Row | air sensitivity [5] | Binding Affinities [6] [M⁻¹] | Binding Affinities [7] [M⁻¹] | Compound | chemiluminescent response after H2S-mediated reduction [8] | chemiluminescence in the absence of H2S [8] | Normalized Luminescence (CL/CL0) [9, 12] | Normalized Luminescence (CL/CL0) ([9]; Reactant Cys) | Normalized Luminescence (CL/CL0) ([9]; Reactant GSH) | Normalized Luminescence (CL/CL0) [9, 13] | Normalized Luminescence (CL/CL0) ([9]; Reactant HNO) | Normalized Luminescence (CL/CL0) ([9]; Reactant Hcy) | Normalized Luminescence (CL/CL0) ([9]; Reactant NAC) | Normalized Luminescence (CL/CL0) ([9]; Reactant NO2) | Normalized Luminescence (CL/CL0) ([9]; Reactant ONOO^−) | Normalized Luminescence (CL/CL0) ([9]; Reactant S2O^2−) | Normalized Luminescence (CL/CL0) ([9]; Reactant SNAP (NO)) | Normalized Luminescence (CL/CL0) ([9]; Reactant SO4^2−) | turn on for H2S [9] [fold] | further results
5 | not air-sensitive | 380 ± 80 | 3640 ± 270 | [N-]=[N+]=Nc1cccc2c(=O)[nH][nH]c(=O)c12 [compound 200, 3-Azidophthalhydrazide] | robust chemiluminescent response | negligible chemiluminescence | 6.6 ± 3.2 | 81 ± 5 | 94 ± 12 | 128 ± 16 | 9.1 ± 0.2 | 57 ± 3 | 37 ± 19 | 0.9 ± 0.2 | 0.6 ± 0.2 | 5.9 ± 1.1 | 0.05 ± 0.01 | 0.8 ± 0.3 | 128 | 
6 | not air-sensitive | 260 ± 60 | 3780 ± 370 | [N-]=[N+]=Nc1ccc2c(=O)[nH][nH]c(=O)c2c1 [compound 202, 4-Azidophthalhydrazide] | robust chemiluminescent response | negligible chemiluminescence | 1.7 ± 0.08 | 1.5 ± 0.03 | 3.7 ± 0.9 | 45 ± 3 | 3.3 ± 0.2 | 3.3 ± 0.5 | 3.3 ± 0.4 | 3.2 ± 0.6 | 4.0 ± 0.2 | 2.2 ± 0.6 | 1.5 ± 0.5 | 1.5 ± 0.3 | 45 | chemiluminescent response with CSE in the absence of substrate [10]: no response; chemiluminescent response with CSE and Hcy substrate ([10]; by comparison to CSE alone (p<0.001) or CSE and Hcy inhibited with BCA (p<0.005)): robust response; chemiluminescent response to Hcy, BCA, pyruvate (Pyr) and NH3 ([10]; control experiments without CSE, p<0.005): negligible; luminescent response in C6 cell lysates lacking CSE substrates (C6 cells): minimal luminescent response; luminescence in C6 cell lysates with Hcy as CSE substrate (C6 cells; p<0.001 by comparison to lysates lacking substrate): significantly increased luminescence; luminescent response in C6 cell lysates with Hcy and BCA (C6 cells; p<0.005): abrogated the luminescent response; Normalized Luminescence (CL/CL0) ([9]; Reactant Toluenethiol (TolSH)): 1.9 ± 0.4
